pKi: −log10 of the molar value.
Molecular target: GST-Bc1-2 (Homo sapiens, UniProt P10415)
Assay: Time Resolved-Fluorescence Resonance Energy Transfer (TR-FRET) Bcl-2 binding assay with F-Bak peptide probe
Details: GST-Bcl-2 1 nM, F-Bak probe 100 nM, Tb-anti-GST 1 nM; '<' = below limit of detection; read-out: TR-FRET Bcl-2 Binding Ki
Description: The samples are then mixed on a shaker for 1 minute and incubated for an additional 3 hours at room temperature. For each assay, the probe/antibody and protein/probe/antibody were included on each assay plate as negative and positive controls, respectively.
The samples were then mixed on a shaker for 1 minute and incubated for an additional 3 hours at room temperature. For each assay, the probe/antibody and protein/probe/antibody were included on each assay plate as negative and positive controls, respectively.

Chain of GST-Bc1-2 (P10415 whole entry): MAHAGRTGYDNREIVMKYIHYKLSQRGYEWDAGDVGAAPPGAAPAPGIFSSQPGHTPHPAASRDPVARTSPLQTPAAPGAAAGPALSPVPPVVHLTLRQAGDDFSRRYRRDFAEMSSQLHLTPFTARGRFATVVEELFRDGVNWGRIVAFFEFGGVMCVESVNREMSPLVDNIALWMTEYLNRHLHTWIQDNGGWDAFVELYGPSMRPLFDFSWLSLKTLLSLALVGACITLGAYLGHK

| Structure (SMILES) | pKi |
| --- | --- |
| CC1(C)CCC(CC2CCN(c3ccc(C(=O)NS(=O)(=O)c4cnc(OCC5(O)CCC(F)(F)CC5)c(Cl)c4)c(Oc4cnc5[nH]ccc5c4)c3)CC2)=C(c2ccc(Cl)cc2)C1 [Example 302, N-({5-chloro-6-[(4,4-difluoro-1-hydroxycyclohexyl)methoxy]pyridin-3-yl}sulfonyl)-4-(4-{[2-(4-chlorophenyl)-4,4-dimethylcyclohex-1-en-1-yl]methyl}piperidin-1-yl)-2-(1H-pyrrolo[2,3-b]pyridin-5-yloxy)benzamide] | 9.48 |
| CC1(C)CCC(CN2CCN(c3ccc(C(=O)NS(=O)(=O)c4ccc(OC[C@@H]5COCCO5)c([N+](=O)[O-])c4)c(Oc4cnc5[nH]ccc5c4)c3)CC2)=C(c2ccc(Cl)cc2)C1 [Example 28, 4-(4-{[2-(4-chlorophenyl)-4,4-dimethylcyclohex-1-en-1-yl]methyl}piperazin-1-yl)-N-({4-[(2S)-1,4-dioxan-2-ylmethoxy]-3-nitrophenyl}sulfonyl)-2-(1H-pyrrolo[2,3-b]pyridin-5-yloxy)benzamide] | > 11.00 |
| CC1(C)CCC(CN2CCN(c3ccc(C(=O)NS(=O)(=O)c4cnc(OCCN5CCOCC5)c(C#N)c4)c(Oc4cnc5[nH]ccc5c4)c3)CC2)=C(c2ccc(Cl)cc2)C1 [Example 57, 4-(4-{[2-(4-chlorophenyl)-4,4-dimethylcyclohex-1-en-1-yl]methyl}piperazin-1-yl)-N-{[5-cyano-6-(2-morpholin-4-ylethoxy)pyridin-3-yl]sulfonyl}-2-(1H-pyrrolo[2,3-b]pyridin-5-yloxy)benzamide] | 10.20 |
| CC1(C)CCC(CN2CCN(c3ccc(C(=O)NS(=O)(=O)c4cnc(OCC5(F)CCN(C6COC6)CC5)c(Cl)c4)c(Oc4cnc5[nH]ccc5c4)c3)CC2)=C(c2ccc(Cl)cc2)C1 [Example 277, N-[(5-chloro-6-{[4-fluoro-1-(oxetan-3-yl)piperidin-4-yl]methoxy}pyridin-3-yl)sulfonyl]-4-(4-{[2-(4-chlorophenyl)-4,4-dimethylcyclohex-1-en-1-yl]methyl}piperazin-1-yl)-2-(1H-pyrrolo[2,3-b]pyridin-5-yloxy)benzamide] | > 11.00 |
| O=C(NS(=O)(=O)c1ccc(NCCCN2CCOCC2)c([N+](=O)[O-])c1)c1ccc(N2CCN(Cc3ccccc3-c3ccc(Cl)cc3)CC2)cc1Oc1cnc2[nH]ccc2c1 [Example 2, 4-{4-[(4′-chloro-1,1′-biphenyl-2-yl)methyl]piperazin-1-yl}-N-({4-[(3-morpholin-4-ylpropyl)amino]-3-nitrophenyl}sulfonyl)-2-(1H-pyrrolo[2,3-b]pyridin-5-yloxy)benzamide] | > 11.00 |
| CC1(C)CCC(CN2CCN(c3ccc(C(=O)NS(=O)(=O)c4ccc(OCC5CCOC5)c(Cl)c4)c(Oc4cnc5[nH]ccc5c4)c3)CC2)=C(c2ccc(Cl)cc2)C1 (stereo not drawn) [Example 323, 4-(4-{[2-(4-chlorophenyl)-4,4-dimethylcyclohex-1-en-1-yl]methyl}piperazin-1-yl)-N-{[3-chloro-4-(tetrahydrofuran-3-ylmethoxy)phenyl]sulfonyl}-2-(1H-pyrrolo[2,3-b]pyridin-5-yloxy)benzamide] | 9.98 |
| CC1(C)CCC(CN2CCN(c3ccc(C(=O)NS(=O)(=O)c4ccc(OCC5(F)CCOCC5)c(C(F)(F)F)c4)c(Oc4cnc5[nH]ccc5c4)c3)CC2)=C(c2ccc(Cl)cc2)C1 [Example 307, 4-(4-{[2-(4-chlorophenyl)-4,4-dimethylcyclohex-1-en-1-yl]methyl}piperazin-1-yl)-N-({4-[(4-fluorotetrahydro-2H-pyran-4-yl)methoxy]-3-(trifluoromethyl)phenyl}sulfonyl)-2-(1H-pyrrolo[2,3-b]pyridin-5-yloxy)benzamide] | 9.89 |
| CC1(C)CCC(CN2CCN(c3ccc(C(=O)NS(=O)(=O)c4ccc(N[C@@H]5CCN(C(CF)CF)C5)c(S(=O)(=O)C(F)(F)F)c4)c(Oc4cnc5[nH]ccc5c4)c3)CC2)=C(c2ccc(Cl)cc2)C1 [Example 225, 4-(4-{[2-(4-chlorophenyl)-4,4-dimethylcyclohex-1-en-1-yl]methyl}piperazin-1-yl)-N-[(4-{[(3R)-1-(1,3-difluoropropan-2-yl)pyrrolidin-3-yl]amino}-3-[(trifluoromethyl)sulfonyl]phenyl)sulfonyl]-2-(1H-pyrrolo[2,3-b]pyridin-5-yloxy)benzamide] | 9.71 |
| CC1(C)CCC(CN2CCN(c3ccc(C(=O)NS(=O)(=O)c4ccc(NC[C@H]5CC[C@H](O)C5)c([N+](=O)[O-])c4)c(Oc4cnc5[nH]ccc5c4)c3)CC2)=C(c2ccc(Cl)cc2)C1 [Example 157, 4-(4-{[2-(4-chlorophenyl)-4,4-dimethylcyclohex-1-en-1-yl]methyl}piperazin-1-yl)-N-{[4-({[(1S,3S)-3-hydroxycyclopentyl]methyl}amino)-3-nitrophenyl]sulfonyl}-2-(1H-pyrrolo[2,3-b]pyridin-5-yloxy)benzamide] | > 11.00 |
| CC1(C)CCC(CN2CCN(c3ccc(C(=O)NS(=O)(=O)c4ccc(NCC5CCOC5)c([N+](=O)[O-])c4)c(Oc4cnc5[nH]ccc5c4)c3)CC2)=C(c2ccc(Cl)cc2)C1 (stereo not drawn) [Example 114, 4-(4-{[2-(4-chlorophenyl)-4,4-dimethylcyclohex-1-en-1-yl]methyl}piperazin-1-yl)-N-({3-nitro-4-[(tetrahydrofuran-3-ylmethyl)amino]phenyl}sulfonyl)-2-(1H-pyrrolo[2,3-b]pyridin-5-yloxy)benzamide] | > 11.00 |
| CC1(C)CCC(CN2CCN(c3ccc(C(=O)NS(=O)(=O)c4ccc(Cl)c([N+](=O)[O-])c4)c(Oc4cnc5[nH]ccc5c4)c3)CC2)=C(c2ccc(Cl)cc2)C1 [Example 82, N-[(4-chloro-3-nitrophenyl)sulfonyl]-4-(4-{[2-(4-chlorophenyl)-4,4-dimethylcyclohex-1-en-1-yl]methyl}piperazin-1-yl)-2-(1H-pyrrolo[2,3-b]pyridin-5-yloxy)benzamide] | 9.48 |
| O=C(NS(=O)(=O)c1ccc(NCC2CCOCC2)c([N+](=O)[O-])c1)c1ccc(N2CCN(CC3=C(c4ccc(Cl)cc4)CCC(F)(F)C3)CC2)cc1Oc1cnc2[nH]ccc2c1 [Example 321, 4-(4-{[2-(4-chlorophenyl)-5,5-difluorocyclohex-1-en-1-yl]methyl}piperazin-1-yl)-N-({3-nitro-4-[(tetrahydro-2H-pyran-4-ylmethyl)amino]phenyl}sulfonyl)-2-(1H-pyrrolo[2,3-b]pyridin-5-yloxy)benzamide] | > 11.00 |
| CC1(C)CCC(c2ccc(Cl)cc2)=C(CN2CCN(c3ccc(C(=O)NS(=O)(=O)c4ccc(OCC5(F)CCOCC5)c([N+](=O)[O-])c4)c(Oc4cnc5[nH]ccc5c4)c3)CC2)C1 [Example 119, 4-(4-{[2-(4-chlorophenyl)-5,5-dimethylcyclohex-1-en-1-yl]methyl}piperazin-1-yl)-N-({4-[(4-fluorotetrahydro-2H-pyran-4-yl)methoxy]-3-nitrophenyl}sulfonyl)-2-(1H-pyrrolo[2,3-b]pyridin-5-yloxy)benzamide] | > 11.00 |
| CC1(C)CCC(CN2CCN(c3ccc(C(=O)NS(=O)(=O)c4ccc(NCC5CN(C6CC6)CCO5)c(Cl)c4)c(Oc4cnc5[nH]ccc5c4)c3)CC2)=C(c2ccc(Cl)cc2)C1 (stereo not drawn) [Example 332, N-[(3-chloro-4-{[(4-cyclopropylmorpholin-2-yl)methyl]amino}phenyl)sulfonyl]-4-(4-{[2-(4-chlorophenyl)-4,4-dimethylcyclohex-1-en-1-yl]methyl}piperazin-1-yl)-2-(1H-pyrrolo[2,3-b]pyridin-5-yloxy)benzamide] | 9.21 |

Same assay, conditions: Table 5, direct comparison Z=N vs Z=C analogs; read-out: Bcl-2 FRET ki

| Structure (SMILES) | pKi |
| --- | --- |
| O=C(NS(=O)(=O)c1ccc(NCCCN2CCOCC2)c([N+](=O)[O-])c1)c1ccc(N2CCN(Cc3ccccc3-c3ccc(Cl)cc3)CC2)cc1Oc1cnc2[nH]ccc2c1 [Example 2, 4-{4-[(4′-chloro-1,1′-biphenyl-2-yl)methyl]piperazin-1-yl}-N-({4-[(3-morpholin-4-ylpropyl)amino]-3-nitrophenyl}sulfonyl)-2-(1H-pyrrolo[2,3-b]pyridin-5-yloxy)benzamide] | > 11.00 |

Reference: US8580794B2 (AbbVie Inc., priority 2009, dated 2013)
